Inconclusive results and toxic doses are left out. Rule as the data show it: active = T/C of 150% or more; inactive = T/C below 125%.
System: L1210 leukemia ip in BDF1 mice, survival T/C
Experiment: NCI In Vivo Anticancer Drug Screen. Data for tumor model L1210 Leukemia (intraperitoneal) in B6D2F1 (BDF1) mice
Conditions: endpoint: mean survival time, higher = longer survival
In short: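 Tumor was transplanted into mice, which were then dosed with test compound or vehicle alone. Survival was recorded for each group, and the treated figure was expressed relative to the control figure.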

Measured: T/C

NC(CSS(=O)(=O)O)=NC1CC1
inactive: dose: 100.0 mg/kg/injection, schedule: Q04DX002 (ip), vehicle: Klucel (hydroxypropylcellulose) (HPC) 94 % of control | dose: 200.0 mg/kg/injection, schedule: Q04DX002 (ip), vehicle: Klucel (hydroxypropylcellulose) (HPC) 91 % of control | dose: 400.0 mg/kg/injection, schedule: Q04DX002 (ip), vehicle: Klucel (hydroxypropylcellulose) (HPC) 109 % of control

NC12C3(Cl)C4(Cl)C5(OCCO5)C5(Cl)C3(Cl)C1(Cl)C5(Cl)C24Cl (stereo not given)
inactive: dose: 50.0 mg/kg/injection, schedule: Q01DX001 (ip), vehicle: saline 102 % of control | dose: 100.0 mg/kg/injection, schedule: Q01DX001 (ip), vehicle: saline 102 % of control | dose: 200.0 mg/kg/injection, schedule: Q01DX001 (ip), vehicle: saline 90 % of control | dose: 400.0 mg/kg/injection, schedule: Q01DX001 (ip), vehicle: saline 102 % of control

COC1CCC(OC2CC(C3(C)CCC4(CC(O)C(C)C(C(C)/C=C(\C)C(=O)C(C)CC(C)C(=O)O)O4)O3)OC3(OC(C4OC(O)(CO)C(C)CC4C)CC3C)C2C)OC1C (stereo not given)
inactive: dose: 0.93 mg/kg/injection, schedule: Q01DX001 (ip), vehicle: saline 93 % of control | dose: 1.87 mg/kg/injection, schedule: Q01DX001 (ip), vehicle: saline 90 % of control | dose: 28.0 micrograms/kg/injection, schedule: Q01DX009 (ip), vehicle: saline 94 % of control | dose: 57.0 micrograms/kg/injection, schedule: Q01DX009 (ip), vehicle: saline 88 % of control | dose: 57.0 micrograms/kg/injection, schedule: Q04DX003 (ip), vehicle: saline 94 % of control | dose: 115.0 micrograms/kg/injection, schedule: Q01DX009 (ip), vehicle: saline 105 % of control | dose: 115.0 micrograms/kg/injection, schedule: Q04DX003 (ip), vehicle: saline 91 % of control | dose: 230.0 micrograms/kg/injection, schedule: Q04DX003 (ip), vehicle: saline 89 % of control

Reference: PubChem BioAssay AID248 (DTP/NCI, 2004)
